{
  "source": "patent US6753016B2",
  "about": "“Preservation of wood products” (Rohm and Haas Company, priority 2001, dated 2004)",
  "origin": "cited, not measured here",
  "settings": "aqueous treatment of wood surfaces; compared to conventional chromium(VI) treatment",
  "data": [
    {"smiles": "[Cl][Fe]([Cl])[Cl]", "note": "[ferric chloride]", "values": [
      {"measurement": "protective effect on treated wood in weathering", "result": "does not have a protective effect"}
    ]}
  ]
}
